Key:
[1] = tested on: serotonin-2 receptor; assay: Anti-serotonin (5-HT) action: contraction of isolated superior mesenteric artery induced by 10^−5 M 5-HT; conditions: contraction by 10^−5 M 5-HT taken as 100%, guinea pig superior mesenteric artery
Experimental: (1) Anti-Serotonin (5-HT) Action
A preparation cut in a helical form was suspended under resting tension of 0.3 g in a Magnus cylinder filled with the Tyrode solution which had been aerated with a gas mixture of 95% O2 and 5% CO2 and maintained at 37° C. Using an isometric transducer (“UL-10”, manufactured by SHINKOH K.K.) and a pressure preamplifier (“DSA-605A”, manufactured by SHINKOH K.K.), variations in tension were measured. The isometric tensions were recorded on a pen-writing recorder (“VP-6537A”, manufactured by NATIONAL K.K.). Taking the contraction induced by 10^−5 M serotonin (5-HT) as 100%, the percent contractions by 10^−5 M 5-HT in the presence of each test drug at 10^−8 M, 10^−7 M and 10^−6 M were determined as anti-5-HT action.

[2] = tested on: α1 receptors; assay: Anti-α1 action: tonic contraction of isolated thoracic aorta induced by 10^−5 M norepinephrine; conditions: tonic contraction by 10^−5 M norepinephrine taken as 100%, guinea pig thoracic aorta
Experimental: The thoracic aorta of each Hartley male guinea pig (body weight: 300-500 g) was excised. A preparation cut in a helical form was suspended under 1 g load in a Magnus cylinder filled with the Tyrode solution which had been aerated with a gas mixture of 95% O2 and 5% CO2 and maintained at 37° C. Using an isometric transducer (“TB-612J”, manufactured by Nihon Kohden Corporation) and a pressure preamplifier (“AP-620G”, manufactured by Nihon Kohden Corporation), variations in tension were measured. The isometric tensions were recorded on a thermal pen-writing recorder (“WT-647G”, manufactured by Nihon Kohden Corporation). Taking the tonic contraction induced by 10^−5 M norepinephrine (NE) as 100%, the percent contractions upon addition of each test drug at 10^−8 M and 10^−7 M were determined as α1 action.

Structure (SMILES)	Anti 5-HT action (% of Control) ([1]; test drug 10^−7 M)	Anti 5-HT action (% of Control) ([1]; test drug 10^−8 M)	Anti α1 action (% of Control) ([2]; test drug 10^−7 M)	Anti α1 action (% of Control) ([2]; test drug 10^−8 M)	Anti 5-HT action (% of Control) ([1]; test drug 10^−6 M)
Cn1ccc2c1C(=O)CCN(CCCN1CCC(c3noc4cc(F)ccc34)CC1)C2=O [Compound No. 50, 5-[3-[4-(6-fluoro-1,2-benzisoxazol-3-yl)piperidino]propyl]-1-methyl-1,4,5,6,7,8-hexahydropyrrolo[3,2-c]azepine-4,8-dione]	25.1 % of Control	67.5 % of Control	34.2 % of Control	67.1 % of Control	–
Cn1ccc2c1C1(CCN(CCCN3CCN(c4ccc(F)cc4)CC3)C2=O)SCCS1 [Compound No. 52, 5-[3-[4-(4-fluorophenyl)piperazin-1-yl]propyl]-1-methyl-1,4,5,6,7,8-hexahydropyrrolo-[3,2-c]azepin-4-one-8-spiro-2′-(1′,3′-dithiolane)]	20.9 % of Control	75.5 % of Control	75.8 % of Control	96.8 % of Control	–
Cn1ccc2c1C(=NO)CCN(CCCN1CCN(c3ccc(F)cc3)CC1)C2=O [Compound No. 53, 5-[3-[4-(4-fluorophenyl)piperazin-1-yl]propyl]-8-hydroxyimino-1-methyl-1,4,5,6,7,8-hexahydropyrrolo[3,2-c]azepin-4-one]	87.1 % of Control	–	60.1 % of Control	86.1 % of Control	48.2 % of Control
Cn1cc2c(c1)/C(=N\O)CCN(CCCN1CCN(c3ccc(F)cc3)CC1)C2=O [Compound No. 55, 5-[3-[4-(4-fluorophenyl)piperazin-1-yl]propyl]-8-[(Z)-hydroxyimino]-2-methyl-2,4,5,6,7,8-hexahydropyrrolo[3,4-c]azepin-4-one]	59.5 % of Control	–	73.5 % of Control	97.6 % of Control	11.0 % of Control
Cn1ccc2c1C(O)CCN(CCN1CCN(c3ccc(F)cc3)CC1)C2=O (stereo not drawn) [Compound No. 56, 5-[2-[4-(4-fluorophenyl)piperazin-1-yl]ethyl]-8-hydroxy-1-methyl-1,4,5,6,7,8-hexahydropyrrolo[3,2-c]azepin-4-one]	90.2 % of Control	–	71.4 % of Control	96.7 % of Control	47.9 % of Control
Cn1ccc2c1C(O)CCN(CCCN1CCN(c3ccc(F)cc3)CC1)C2=O (stereo not drawn) [Compound No. 57, 5-[3-[4-(4-fluorophenyl)piperazin-1-yl]propyl]-8-hydroxy-1-methyl-1,4,5,6,7,8-hexahydropyrrolo[3,2-c]azepin-4-one]	12.0 % of Control	54.6 % of Control	91.4 % of Control	100 % of Control	7.5 % of Control
Cc1cn(C)c2c1C(=O)N(CCCN1CCN(c3ccc(F)cc3)CC1)CCC2O (stereo not drawn) [Compound No. 59, 5-[3-[4-(4-fluorophenyl)piperazin-1-yl]propyl]-8-hydroxy-1,3-dimethyl-1,4,5,6,7,8-hexahydropyrrolo[3,2-c]azepin-4-one]	12.5 % of Control	48.5 % of Control	47.3 % of Control	81.6 % of Control	–
O=C1c2ccn(-c3ccccc3)c2C(O)CCN1CCCN1CCN(c2ccc(F)cc2)CC1 (stereo not drawn) [Compound No. 61, 5-[3-[4-(4-fluorophenyl)piperazin-1-yl]propyl]-8-hydroxy-1-phenyl-1,4,5,6,7,8-hexahydropyrrolo[3,2-c]azepin-4-one]	74.3 % of Control	–	39.4 % of Control	96.1 % of Control	37.3 % of Control
O=C1c2ccn(Cc3ccccc3)c2C(O)CCN1CCCN1CCN(c2ccc(F)cc2)CC1 (stereo not drawn) [Compound No. 62, 1-benzyl-5-[3-[4-(4-fluorophenyl)piperazin-1-yl]propyl]-8-hydroxy-1,4,5,6,7,8-hexahydropyrrolo[3,2-c]azepin-4-one]	50.6 % of Control	–	31.7 % of Control	95.0 % of Control	11.1 % of Control
Cn1ccc2c1C(O)CCN(CCCN1CCC(c3ccccc3)CC1)C2=O (stereo not drawn) [Compound No. 73, 8-hydroxy-1-methyl-5-[3-(4-phenylpiperidino)propyl]-1,4,5,6,7,8-hexahydropyrrolo-[3,2-c]azepin-4-one]	54.7 % of Control	90.7 % of Control	94.0 % of Control	99.3 % of Control	14.9 % of Control
Cn1ccc2c1C(O)CCN(CCCN1CCC(C(=O)c3ccc(F)cc3)CC1)C2=O (stereo not drawn) [Compound No. 75, 5-[3-[4-(4-fluorobenzoyl)piperidino]-propyl]-8-hydroxy-1-methyl-1,4,5,6,7,8-hexahydropyrrolo[3,2-c]azepin-4-one]	71.7 % of Control	–	70.3 % of Control	98.3 % of Control	25.2 % of Control
COC1CCN(CCCN2CCN(c3ccc(Cl)cc3)CC2)C(=O)c2ccn(C)c21 (stereo not drawn) [Compound No. 76, 5-[3-[4-(4-chlorophenyl)piperazin-1-yl]propyl]-8-methoxy-1-methyl-1,4,5,6,7,8-hexahydropyrrolo[3,2-c]azepin-4-one]	35.5 % of Control	–	88.1 % of Control	98.9 % of Control	7.2 % of Control
Cn1ccc2c1C=CCN(CCCN1CCN(c3ccc(Cl)cc3)CC1)C2=O [Compound No. 79, 5-[3-[4-(4-chlorophenyl)piperazin-1-yl]propyl]-1-methyl-1,4,5,6-tetrahydropyrrolo[3,2-c]azepin-4-one]	31.8 % of Control	78.3 % of Control	58.1 % of Control	94.8 % of Control	–
Cn1ccc2c1CCCN(CCCN1CCN(c3ccc(F)cc3)CC1)C2=O [Compound No. 82, 5-[3-[4-(4-fluorophenyl)piperazin-1-yl]propyl]-1-methyl-1,4,5,6,7,8-hexahydropyrrolo-[3,2-c]azepin-4-one]	8.4 % of Control	35.2 % of Control	37.6 % of Control	87.6 % of Control	–
Cn1ccc2c1[C@H](O)CCN(CCCN1CCN(c3ccc(F)cc3)CC1)C2=O [Compound No. 84]	61.9 % of Control	82.0 % of Control	92.4 % of Control	100 % of Control	11.9 % of Control

From US6713634B2, “Pyrroloazepine derivatives” (Daiichi Suntory Pharma Co., Ltd., priority 1995, dated 2004)
